These results are taken from PMC8868518, “Exploring Titanium(IV) Complexes as Potential Antimicrobial Compounds” (Antibiotics, 2022).

Structures can show the parent of a compound that is named as a salt. Some results are limits rather than exact numbers.

A word on the MIC: it is the least concentration at which growth counts as inhibited. The IC50 is the point on the concentration scale where inhibition reaches its midpoint.

The test system of one data set is C. albicans (ATCC 90028). Kind of data set: CO-ADD antifungal assay, growth inhibition (OD630). The note with it: for MIC / Dmax: Candida albicans, ATCC90028; for MIC / MIC C. albicans: predicted or measured MIC, ≥75% growth inhibition, 36 h; for MIC / Dmax / MIC C. albicans / Dmax C. albicans, maximum % inhibition: up to 32 μg/mL; for Dmax: read-out: Dmax C. albicans, maximum % inhibition. The format is cell-based, Candida albicans.

Data set [1] has as its system HEK293 ATCC CRL-1573 human embryonic kidney cells. Kind of data set: CO-ADD cytotoxicity assay (resazurin). The format is cell-based. Conditions: for antiproliferative effect against HEK293 (in words): all concentrations examined (0.25-32 μg/mL), 20 h, CC50 could not be measured.
The conditions of data set [2]: pH 4; cited from earlier work.
In a further data set the test system is human red blood cells. Kind of data set: CO-ADD hemolysis assay. The format is cell-based. Conditions: all concentrations examined (0.25-32 μg/mL), 1 h; HC10 and HC50 could not be measured. The method, then:
The compounds were used as received by the CO-ADD. For the screenings, most compounds were dissolved to a stock concentration of 10 mg/mL in DMSO. K2[Ti(Citrate)3], Na3Citrate, and K2[TiO(Oxalate)2] were dissolved in warm water. [Cu(Deferasirox)(H2O)]2 was dissolved in pyridine after its solubility was determined to be excellent in pyridine due to coordination of the solvent to the metal producing [Cu(Deferasirox)(pyridine)]2 in situ. […] Each sample concentration was prepared in 384-well plates, non-binding surface plate (NBS; Corning 3640) for each bacterial/fungal strain, tissue-culture treated (TC-treated; Corning 3712/3764), black for mammalian cell types and polypropylene 384-well (PP; […] All sample preparation was conducted using liquid handling robots. Human whole blood (Australian Red Cross) was washed three times with three volumes of 0.9% NaCl and resuspended in a concentration of 0.5 × 10^8 cells per mL, determined by manual cell count in a Neubauer hemocytometer. Washed cells were added to the compound-containing plates (384-well polypropylene plates (PP); Corning 3657) for a final volume of 50 μL, shaken and incubated for 1 h at 37 °C. […]

Another data set has as its system MRC-5 cells. The note with it: cited from earlier work.

As to `O=C(O)CC(O)(CC(=O)O)C(=O)O` [Compound 1, Trisodium citrate, reference compound], in the data set on C. albicans (ATCC 90028), the minimum inhibitory concentration (MIC) is > 32 mg/L and the Dmax worked out at 0.28%.

Consider `O=C(O)c1ccccc1O` [Compound 6, salicylic acid, reference compound], for which, in the data set with C. albicans (ATCC 90028), the minimum inhibitory concentration (MIC) was > 32 mg/L and the Dmax stood at 30.9%.

`[K+].[K+].c1ccc2cc3c(cc2c1)[O][Ti-2]12([O]3)([O]c3cc4ccccc4cc3[O]1)[O]c1cc3ccccc3cc1[O]2` [Compound 8, K2[Ti(Naphthalene-2,3-diolate)3]]: in the data set with C. albicans (ATCC 90028), the “MIC C. albicans” value was >32 mg/L and the “Dmax C. albicans, maximum % inhibition” value is given as 57.57%. The “antiproliferative effect against HEK293 (in words)” value (“antiproliferative effect” below) in data set [1] was “inactive”. In data set [2], the “solution stability (in words)” value was “highly stable in solution”.

Regarding [Cu(Deferasirox)(H2O)]2 [Compound 15], in the data set with C. albicans (ATCC 90028), the “MIC C. albicans” value was >32 mg/L and the “Dmax C. albicans, maximum % inhibition” value was found to be 34.0%. Moreover, the “inhibition of HEK293 cell proliferation” value in data set [1] (at the maximum concentration tested) is on record as ~50%.

`O=C(O)c1ccc(-n2nc3nc2-c2ccccc2[O][Ti]2([O]c4ccccc4-3)[O]c3ccccc3-c3nc(n(-c4ccc(C(=O)O)cc4)n3)-c3ccccc3[O]2)cc1` [Compound 10, titanium(IV) bis(deferasirox)]: in the data set on C. albicans (ATCC 90028), the “MIC C. albicans” value is >32 mg/L and the “Dmax C. albicans, maximum % inhibition” value turned out to be 5.74%. For the same compound, in data set [1], the “antiproliferative effect” value is recorded as “insignificant antiproliferative effect”. Besides, the “hemolysis of human red blood cells (in words)” value in the data set on human red blood cells is “insignificant antiproliferative effect”. In addition, the “IC50 ± SD” value in the data set with MRC-5 cells is 19.8 ± 0.8 mg/L. Besides, the IC50 in the data set on MRC-5 cells (read-out: IC50 ± SD) is 25 ± 1 µM. Also, the “solution stability (in words)” value in data set [2] is given as “highly stable in solution”.

In the case of `Oc1cc2ccccc2cc1O` [Compound 2, 2,3-dihydroxynaphthalene, reference compound], in the data set on C. albicans (ATCC 90028), the MIC was > 32 mg/L and the Dmax is 16.3%.

In the case of `O=C([O-])C(=O)O.O=C([O-])C(=O)O.[K+].[K+].[O]=[Ti]` [Compound 14, Potassium dioxalatoxotitanate(IV) dihydrate], the “C. albicans MIC value in units of molarity” value in the data set with C. albicans (ATCC 90028) (converted from 32 μg/mL (Table S1)) stood at 90.4 µM. Also, in the data set on C. albicans (ATCC 90028), the “MIC C. albicans” value is 32 mg/L and the “Dmax C. albicans, maximum % inhibition” value turned out to be 77.3%. The “Dmax C. albicans, maximum % inhibition” value in the data set on C. albicans (ATCC 90028) (listed as K2[TiO(Oxalate)2]) is reported as “greater than 75%”. Further, the “antiproliferative effect” value in data set [1] was “insignificant antiproliferative effect”. Also, the “hemolysis of human red blood cells (in words)” value with human red blood cells is “insignificant antiproliferative effect”.
